In publication PMC11249626, “Fluorophore-Labeled Pyrrolones Targeting the Intracellular Allosteric Binding Site of the Chemokine Receptor CCR1” (ACS Pharmacology & Translational Science, 2024):
Read-outs that look alike come from different tables or passages of the source.

Tests used:
[1] = molecular target: T1, human chemokine receptor CCR1 (Homo sapiens, UniProt P32246); assay: Cellular NanoBiT β-arrestin recruitment assay; type: cell-based
T1 construct: expressed in transfected cells; host or cells: HEK293T, transient
T1 sequence (P32246 1-355): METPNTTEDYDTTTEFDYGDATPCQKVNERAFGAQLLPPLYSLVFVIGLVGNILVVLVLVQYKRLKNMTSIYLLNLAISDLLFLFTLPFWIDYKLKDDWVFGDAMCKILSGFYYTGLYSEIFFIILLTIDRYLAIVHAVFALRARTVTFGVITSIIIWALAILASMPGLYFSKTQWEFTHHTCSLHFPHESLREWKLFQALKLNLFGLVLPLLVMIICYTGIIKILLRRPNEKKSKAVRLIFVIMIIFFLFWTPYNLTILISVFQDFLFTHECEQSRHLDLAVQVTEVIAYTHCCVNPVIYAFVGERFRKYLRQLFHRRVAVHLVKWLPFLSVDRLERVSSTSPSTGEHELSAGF
Method: CCR1 and CCR2 was monitored using a nanoluciferase complementation -based assay (NanoBiT, Promega). 17-19 5 x 10^6 HEK293T cells were plated in 10 cm dishes and cultured for 24 h before transfection with vectors encoding for the human chemokine receptor CCR1 or CCR2 C-terminally fused with SmBiT and β-arrestin 2 N-terminally fused with LgBiT. 24 h after transfection cells were harvested, distributed into white 96-well plates (5 × 10^4 cells per well) and incubated for 1 h at 37 °C with compound 23 at concentrations ranging from 10 nM to 10 µM. The endogenous chemokine ligand CCL5 (3 nM, for CCR1) or CCL2 (10 nM, for CCR2) was then added, and luminescence generated upon nanoluciferase complementation in the presence of coelenterazine H was measured with a Mithras LB940 luminometer (Berthold Technologies) for 20 min. […]
Finally, the top 5% of the identified hits were subsequently docked to a homology model of CCR1 (vide infra). After visual examination of the obtained binding modes 24 hit compounds were identified for further investigation .
Molecular docking: For the docking studies in the course of our virtual screening campaign, the CCR1 protein was […]
27, 28 CCR1 structure was optimized using the Quickprep and structure preparation wizard in MOE 24 using CHARMM27 forcefield. The protein was saved in mol2 format and loaded in GOLD.25, 26 The amino acids defining the IABS were listed in a text file to define the docking cavity. 50 GA runs were performed for docking CCR2-RA-[R] (4-[R]) and SN_12 (43), with the generated solutions clustered based on their RMSD with the threshold set to 0.75 Å using the complete linkage method. Docking runs were performed using ChemScore. Flexibility of amino acids Lys63ICL1, Arg1313.50, Leu2406.36 and Arg3078.49 was taken in consideration in the docking runs, with conformational sampling of their side chains being done by the rotamer libraries implemented in GOLD.25, 26 For the docking studies with our ligand-linker conjugates (Figure S1), molecular ligand structures were geometry optimized as neutral molecules by means of Avogadro (Version 1.2.0)29 using the Universal Force Field (UFF) and the Steepest Decent Algorithm until convergence (ΔE = 0).
CCR113 was used for docking. The compounds were docked by means of AutoDock Vina 1.1.2.30, 31 An exhaustiveness value of 8 and a search space of 22 x 22 x 22 Å³ was applied around the unliganded intracellular allosteric binding site of CCR1. Twenty docking poses were generated for each ligand and inspected manually and according to the docking score.

CCR1 = molecular target: T2, CCR1 (Homo sapiens, UniProt P32246); assay: Membrane-based NanoBRET competition kinetic assay with 12 (1000 nM) and CCR1_Nluc membranes; type: binding; parameters: Promega pNLF1-C (Nluc) #CCR010TN00; host or cells: HEK293T, transient (PEI)
T2 sequence (P32246 1-355): T1 sequence (P32246 1-355)

| SMILES | IC50 ([1]; absence of agonist, read-out: IC50 (CCR1), basal β-arrestin recruitment) | IC50 ([1]; absence of agonist, read-out: pIC50(CCR1), basal β-arrestin recruitment (converted)) | CCR1 over CCR2 selectivity, β-arrestin recruitment ([1]; cellular NanoBiT assays) | IC50 ([1]; in the presence of CCL5 (3 nM), HEK293T cells, read-out: IC50 (CCR1), β-arrestin recruitment) | koff (CCR1; CCR1_Nluc membranes) | kon (CCR1; CCR1_Nluc membranes) | tr (kinetic competition) (CCR1; CCR1_Nluc membranes) | Ki (CCR1; kinetic competition, read-out: Ki(kin.)) |
| --- | --- | --- | --- | --- | --- | --- | --- | --- |
| O=C(C1=C(O)C(=O)N(CCc2ccc(O)cc2)C1c1ccc(F)cc1)c1ccccc1 (racemic) [compound 23] | 6 µM | 6.17 µM | > 10 fold | 14.2 µM | – | – | – | – |
| CC(=O)C1=C(O)C(=O)N(c2ccc(Br)cc2F)C1C1CCCCC1 (centres unmarked) [compound 5, reference compound] | – | – | – | – | 0.0019 s⁻¹ | 723000 M⁻¹ s⁻¹ | 9.1 ± 0.5 min | 0.00263 µM |
